In ChEMBL document CHEMBL1128435, “Synthesis of carbon-11-, fluorine-18-, and iodine-125-labeled GABAA-gated chloride ion channel blockers: substituted 5-tert-butyl-2-phenyl-1,3-dithianes and -dithiane oxides” (J Med Chem, 1995):

Legend:
[1] = Partition coefficient (logP); type: physicochemical; conditions: octanol/water
[2] = biological target: GABA-A receptor; anion channel; assay: In vitro displacement of [3H]TBOB from Gamma-aminobutyric acid A (GABA-A) receptor of rat brain

SMILES | logP [1] | Ki [2] [nM]
CC(C)(C)C1CSC(c2ccc(F)cc2)SC1 (stereo unspecified) | 4.97 | –
CC(C)(C)C1CS(=O)(=O)C(C)(c2ccc(I)cc2)S(=O)(=O)C1 (stereo unspecified) | 1.95 | 105
CC(C)(C)C1CS(=O)(=O)C(c2ccc(F)cc2)S(=O)(=O)C1 (stereo unspecified) | 0.43 | 180
CC1(c2ccc(C#N)cc2)SCC(C(C)(C)C)CS1 (stereo unspecified) | 4.89 | –
CC(C)(C)C1CS(=O)(=O)C(C)(c2ccc(C#N)cc2)S(=O)(=O)C1 (stereo unspecified) | 0.351 | 87
CC(C)(C)C1CSC(c2ccc(C#N)cc2)SC1 (stereo unspecified) | 4.38 | 240
C#Cc1ccc(C2SCC(C(C)(C)C)CS2)cc1 (stereo unspecified) | 4.96 | 85
CC1(c2ccc(I)cc2)SCC(C(C)(C)C)CS1 (stereo unspecified) | 6.5 | 1900
CC(C)(C)[C@H]1CS(=O)(=O)[C@@](C)(c2ccc(C#N)cc2)S(=O)(=O)C1 (stereo in doubt; 9a) | – | 200
CC(C)(C)[C@H]1CS(=O)(=O)[C@@](C)(c2ccc(C#N)cc2)S(=O)(=O)C1 (stereo in doubt; 9b) | – | 41
